According to patent US11510931B2, “Compositions and methods for treating ophthalmic conditions” (MEDICON PHARMACEUTICALS, INC., priority 2016, dated 2022):

Tests used:
[1] = test system: concanavalin A-induced dry eye in rabbits; test: Concanavalin A (Con A)-induced dry eye disease (DED) model in rabbits: TBUT, Schirmer test, tear osmolarity, tear lactoferrin; format: in vivo, rabbit
Experimental: To assess the efficacy of PS on DED an improved concanavalin A model was used. In the concanavalin A model, dry eye is induced by injecting the lacrimal glands of a mammal with concanavalin A, a selective T cell mitogen that induces a lymphocytic infiltrate in these glands. The concanavalin A model is generally described in (Barabino S. Animal models of dry eye. Arch Soc Esp Oftalmol. 2005; 80(12):693-4). Concanavalin A was injected to the lacrimal glands under ultrasound guidance, thus eliminating injections to the vicinity of the gland (as opposed to the gland itself). The head and the tail of the major lacrimal gland of the rabbit were injected separately. The dose of concanavalin A was optimized for DED signs.
In the testing described below, four markers of DED are monitored: the tear break up time (TBUT), the Schirmer test, tear osmolarity, and tear lactoferrin levels. All assays were performed at the same clock time (±1 hr) to avoid assay variability on account of circadian variations.
In an efficacy experiment using the concanavalin A model, one group of rabbits was treated with compound 5, also known as phosphosulindac and abbreviated as PS, 1.5% eye drops and one group with vehicle. […] It is thus clear that PS applied topically suppresses DED.
Con A was injected under ultrasound guidance into all the lacrimal glands and the success of the injection was verified by a post-injection ultrasound image (see FIG. 1 and FIG. 2). […] This variation explains why the blind injections recommended in the original method are often unsuccessful. This was confirmed by mixing the Con A solution with methylene blue and tracking its course after injection. In about ⅓ of the cases, Con A ended up outside the gland.
Four parameters of efficacy were evaluated instead of the usual one or two. They include (a) the tear break up time (TBUT), determined using 0.2% fluorescein over the eye and recording the time taken to develop black dots, lines or obvious disruption of the fluorescein film; (b) tear osmolarity, measured using TearLab Osmolarity Test and following the manufacturer's instructions (TearLab Corp., San Diego, Calif.); (3) Schirmer tear test (STT), determined using Schirmer strips (EagleVision, Denville, N.J.) inserted between the cornea and the palpebral conjunctiva at the mid-point of the lower lid and measuring the length of moistened strip at 5 min; and (4) tear lactoferrin levels measured by ELISA kit (MyBiosource, San Diego, Calif.) following the instructions of the manufacturer. All four have been used in clinical practice and correlate with the clinical activity of the disease. The STT is the least reliable and, as result, it is clinically used less than half as frequently as TBUT.
The injections of Con A to the lacrimal glands were repeated weekly as needed. When longer than a 1-week periods of study are needed, repeat injections prolong dry eye for at least 3 weeks, making the originally acute model chronic.
PS Suppresses Con A—Induced Dry Eye in Rabbits. The effect of PS on dry eye was determined in New Zealand White (NZW) rabbits, 2-3 kg (Charles River Labs, Waltham, Mass.). These rabbits were housed singly in rooms with strict temperature (70±5° F.) and humidity (45±5%) control and acclimated for at least 2 weeks prior to induction of dry eye by injection of Con A as above. NZW rabbits with Con A-induced dry eye (three sets of injections) were treated with PS formulated as nanoparticles and administered topically as eye drops 3×/day for 21 days, starting on the day of Con A injection. […] Similar results were obtained on days 5 and 14 (data not shown).
Using this model, we compared the effect of PS to that of cyclosporine and lifitegrast. Rabbits were treated for 6 days with PS as above or cyclosporine 0.05% or lifitegrast 5% eye drops 3×/day. In addition to determining TUBT, osmolarity and STT, we measured the levels of IL-8 and IL-1β in the ILGs of the rabbits harvested at euthanasia. […]

[2] = test system: chorioallantoic membrane (CAM); test: Chorioallantoic membrane (CAM) neovascularization assay; format: in vivo, chicken; conditions: day 4; for # of new vessels: Mean ± SEM
Experimental: Second, the effect of PS on new vessel formation (neovascularization) was evaluated using the chorioallantoic membrane (CAM) assay. In this assay, fertilized white chicken eggs (SPF Premium, Charles River Laboratory, North Franklin, Conn.) were incubated at 37° C. in 70% humidity for 3 days. The embryos were then incubated ex vivo in a sterile Petri dish for 7 days. Gelatin sponges adsorbed with or without VEGF plus PS or water (vehicle control) were implanted on the CAM surface and the neovasculature was counted on day 4 post implantation under a dissecting microscope.

VEGF = VEGF immunohistochemistry in inferior lacrimal gland of rabbits with DED; format: in vivo, rabbit; conditions: PS 3.5% eye drops three times per day, 1 week, vs vehicle
Experimental: Rabbits with ConA-induced dry eye disease (n=8 eyes/group) were treated with PS 3.5% eye drops three times per day or vehicle for 1 week. […] Immunohistochemistry for VEGF was performed on tissue sections and VEGF positive vessels were counted. PS reduced the number of VEGF positive cells by 73% bringing it to nearly normal values (the level in naïve rabbits)

[3] = Baseline, PS 1.5% eye drops, Mean ± SEM
[4] = Con A DED rabbits, 6 days, eye drops 3×/day, PS nanoparticles, cyclosporine 0.05%, lifitegrast 5%, mean ± SEM
[5] = Day 13, PS 1.5% eye drops, Mean ± SEM
[6] = after 1 week of treatment, FIG. 5

Compound: CCOP(=O)(OCC)OCCCCOC(=O)CC1=C(C)/C(=C/c2ccc([S+](C)[O-])cc2)c2ccc(F)cc21 (centres unmarked) [PS, phosphosulindac]
- Schirmer test [1, 3]: 14.6 ± 0.9 mm
- TBUT [1, 3]: 52.3 ± 4.6 s
- Tear lactoferrin [1, 3]: 3.09 ± 0.4 ng/mg protein
- Osmolarity [1, 4]: 294 ± 4.6 mOsm/L
- STT [1, 4]: 12.3 ± 0.6 mm
- TBUT [1, 4]: 43.6 ± 4.0 s
- Schirmer test ([1]; Day 11, PS 1.5% eye drops, Mean ± SEM): 9.5 ± 1.0 mm
- TBUT [1, 5]: 56.0 ± 4.0 s
- Tear lactoferrin [1, 5]: 3.19 ± 0.2 ng/mg protein
- TBUT, tear osmolarity and tear lactoferrin levels ([1]; PS nanoparticles eye drops 3×/day for 21 days, FIG. 4): restored to normal
- STT value ([1]; PS nanoparticles eye drops 3×/day for 21 days, difference from vehicle significant only for trend, FIG. 4): improved
- STT [1, 6]: no significant effect
- TBUT and osmolarity [1, 6]: normalized
- inhibition at 16 µM ([2]; Gallus gallus, 96 h, VEGF + PS 16 μM): 26%
- inhibition at 50 µM ([2]; Gallus gallus, 96 h, VEGF + PS 50 μM): 34%
- neovascularization % inhibition ([2]; PS 50 μM without VEGF): 29 (P < 0.016) %
- # of new vessels ([2]; PS 50 μM without VEGF): 41 ± 3.2
- # of new vessels ([2]; VEGF + PS 16 μM): 46.4 ± 1.5
- # of new vessels ([2]; VEGF + PS 50 μM): 41.4 ± 1.0
- reduction of the number of VEGF positive cells (VEGF): 73%
